US20130296311A1, “INHIBITORS OF HCV NS5A” (PRESIDIO PHARMACEUTICALS, INC., priority 2010, published 2013)

System: HCV 1b_Huh-Luc/Neo-ET cell line persistently expressing a bicistronic genotype 1b replicon in Huh 7 cells
Test: HCV replicon assay (luciferase readout, 72 h)
Type: cell-based, HCV genotype 1b
Conditions: Hepatitis C virus, Huh-7, 72 h, read-out: Inhibition of HCV genotype 1b
How it was run: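 Huh 7 cells carrying a bicistronic genotype 1b luciferase/neo replicon received compound in triplicate the day after plating. After 72 h, replicon levels were read as Bright-Glo luciferase activity, expressed as % of control; EC50 was fitted with a four-parameter logistic and determined several times.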

| SMILES | EC50 [nM] |
| --- | --- |
| COC(=O)N[C@@H](C(=O)N1CCC[C@H]1c1cc(-c2ccc(C#Cc3ccc(-c4cnc([C@@H]5CCCN5C(=O)[C@H](NC(=O)OC)c5ccccc5)[nH]4)cc3)cc2)n[nH]1)c1ccccc1 [Compound 219] | < 1 |
| O=C(N[C@@H](C(=O)N1CCC[C@H]1c1cc(-c2ccc(C#Cc3ccc(-c4cnc([C@@H]5CCCN5C(=O)[C@H](NC(=O)N5CCOCC5)c5ccccc5)[nH]4)cc3)cc2)n[nH]1)c1ccccc1)N1CCOCC1 [Compound 220] | < 1 |
| CN(C)C(=O)N[C@@H](C(=O)N1CCC[C@H]1c1cc(-c2ccc(C#Cc3ccc(-c4cnc([C@@H]5CCCN5C(=O)[C@H](NC(=O)N(C)C)c5ccccc5)[nH]4)cc3)cc2)n[nH]1)c1ccccc1 [Compound 221] | < 1 |
| O=C(Cc1cccnc1)N[C@@H](C(=O)N1CCC[C@H]1c1cc(-c2ccc(C#Cc3ccc(-c4cnc([C@@H]5CCCN5C(=O)[C@H](NC(=O)Cc5cccnc5)c5ccccc5)[nH]4)cc3)cc2)n[nH]1)c1ccccc1 [Compound 222] | < 1 |
| CN1CCC(C(=O)N[C@@H](C(=O)N2CCC[C@H]2c2cc(-c3ccc(C#Cc4ccc(-c5cnc([C@@H]6CCCN6C(=O)[C@H](NC(=O)C6CCN(C)CC6)c6ccccc6)[nH]5)cc4)cc3)n[nH]2)c2ccccc2)CC1 [Compound 223-1] | < 1 |
| COC(=O)N[C@@H](C(=O)N1CCC[C@H]1c1ncc(-c2ccc(C#Cc3ccc(-c4cnc([C@@H]5CCCN5C(=O)[C@H](NC(=O)N5CCOCC5)c5ccccc5)[nH]4)cc3)cc2)[nH]1)c1ccccc1 [Compound 224] | < 1 |
| COC(=O)N[C@@H](C(=O)N1CCC[C@H]1c1ncc(-c2ccc(C#Cc3ccc(-c4cnc([C@@H]5CCCN5C(=O)[C@H](NS(C)(=O)=O)c5ccccc5)[nH]4)cc3)cc2)[nH]1)c1ccccc1 [Compound 225] | < 1 |
| CC(C)OC(=O)N[C@@H](C(=O)N1CCC[C@H]1c1ncc(-c2ccc(C#Cc3ccc(-c4cnc([C@@H]5CCCN5C(=O)[C@H](NC(=O)OC(C)C)c5ccccc5)[nH]4)cc3)cc2)[nH]1)c1ccccc1 [Compound 227] | < 1 |
| CN(C)[C@@H](C(=O)N1CCC[C@H]1c1ncc(-c2ccc(C#Cc3ccc(-c4cnc([C@@H]5CCCN5C(=O)[C@H](NS(C)(=O)=O)c5ccccc5)[nH]4)cc3)cc2)[nH]1)c1ccccc1 [Compound 228] | < 1 |
| CCN(CC)[C@@H](C(=O)N1CCC[C@H]1c1ncc(-c2ccc(C#Cc3ccc(-c4cnc([C@@H]5CCCN5C(=O)[C@H](NS(C)(=O)=O)c5ccccc5)[nH]4)cc3)cc2)[nH]1)c1ccccc1 [Compound 229] | < 1 |
| CS(=O)(=O)N[C@@H](C(=O)N1CCC[C@H]1c1ncc(-c2ccc(C#Cc3ccc(-c4cnc([C@@H]5CCCN5C(=O)[C@@H](c5ccccc5)N5CCCC5)[nH]4)cc3)cc2)[nH]1)c1ccccc1 [Compound 230] | < 1 |
| CS(=O)(=O)N[C@@H](C(=O)N1CCC[C@H]1c1ncc(-c2ccc(C#Cc3ccc(-c4cnc([C@@H]5CCCN5C(=O)[C@@H](c5ccccc5)N5CCCCC5)[nH]4)cc3)cc2)[nH]1)c1ccccc1 [Compound 231] | < 1 |
| CS(=O)(=O)N[C@@H](C(=O)N1CCC[C@H]1c1ncc(-c2ccc(C#Cc3ccc(-c4cnc([C@@H]5CCCN5C(=O)[C@@H](c5ccccc5)N5CCOCC5)[nH]4)cc3)cc2)[nH]1)c1ccccc1 [Compound 232] | < 1 |
| COC(=O)N[C@@H](C(=O)N1CCC[C@H]1c1ncc(-c2ccc(C#Cc3ccc(C(=O)NC[C@@H]4CCCN4C(=O)[C@@H](c4ccccc4)N4CCCCC4)cc3)cc2)[nH]1)c1ccccc1 [Compound 233] | < 1 |
| COC(=O)N[C@@H](C(=O)N1CCC[C@H]1c1ncc(-c2ccc(C#Cc3ccc(C(=O)NC[C@@H]4CCCN4C(=O)[C@@H](c4ccccc4)N(C)C)cc3)cc2)[nH]1)c1ccccc1 [Compound 234] | < 1 |
| COC(=O)N[C@@H](C(=O)N1CCC[C@H]1c1ncc(-c2ccc(C#Cc3ccc(C(=O)NC[C@@H]4CCCN4C(=O)[C@H](NC(=O)N4CCOCC4)c4ccccc4)cc3)cc2)[nH]1)c1ccccc1 [Compound 235] | < 1 |
| COC(=O)N[C@@H](C(=O)N1CCC[C@H]1c1ncc(-c2ccc(C#Cc3ccc(C(=O)NC[C@@H]4CCCN4C(=O)[C@H](NC(=O)N4CCN(C)CC4)c4ccccc4)cc3)cc2)[nH]1)c1ccccc1 [Compound 236] | < 1 |
| O=C(N[C@@H](C(=O)N1CCC[C@H]1c1ncc(-c2ccc(C#Cc3ccc(-c4cnc([C@@H]5CCCN5C(=O)[C@@H](c5ccccc5)N5CCOCC5)[nH]4)cc3)cc2)[nH]1)c1ccccc1)C1CC1 [Compound 237] | < 1 |
| CN1CCN(C(=O)N[C@@H](C(=O)N2CCC[C@H]2c2ncc(-c3ccc(C#Cc4ccc(-c5cnc([C@@H]6CCCN6C(=O)[C@H](NC(=O)C6CC6)c6ccccc6)[nH]5)cc4)cc3)[nH]2)c2ccccc2)CC1 [Compound 238] | < 1 |
| O=C(N[C@@H](C(=O)N1CCC[C@H]1c1ncc(-c2ccc(C#Cc3ccc(-c4cnc([C@@H]5CCCN5C(=O)[C@H](NC(=O)N5CCOCC5)c5ccccc5)[nH]4)cc3)cc2)[nH]1)c1ccccc1)C1CC1 [Compound 239] | < 1 |
| COC(=O)N[C@@H](C(=O)N1CCC[C@H]1c1ncc(-c2ccc(C#Cc3ccc(-c4cnc([C@@H]5CCCN5C(=O)[C@H](NC(=O)N5CCN(C)CC5)c5ccccc5)[nH]4)cc3)cc2)[nH]1)c1ccccc1 [Compound 240] | < 1 |
| COC(=O)N[C@@H](C(=O)N1CCC[C@H]1c1ncc(-c2ccc(C#Cc3ccc(-c4cnc([C@@H]5CCCN5C(=O)[C@H](NC(=O)N5CCC(O)CC5)c5ccccc5)[nH]4)cc3)cc2)[nH]1)c1ccccc1 [Compound 241] | < 1 |
| COC(=O)N[C@@H](C(=O)N1CCC[C@H]1c1ncc(-c2ccc(C#Cc3ccc(-c4cnc([C@@H]5CCCN5C(=O)[C@H](NC(=O)N5CCCCC5)c5ccccc5)[nH]4)cc3)cc2)[nH]1)c1ccccc1 [Compound 242] | < 1 |
| COC(=O)N[C@@H](C(=O)N1CCC[C@H]1c1ncc(-c2ccc(C#Cc3ccc(-c4cnc([C@@H]5CCCN5C(=O)[C@H](NC(=O)N5CCCC5)c5ccccc5)[nH]4)cc3)cc2)[nH]1)c1ccccc1 [Compound 243] | < 1 |
| CCOC(=O)N[C@@H](C(=O)N1CCC[C@H]1c1ncc(-c2ccc(C#Cc3ccc(-c4cnc([C@@H]5CCCN5C(=O)[C@H](NC(=O)OCC)c5ccccc5)[nH]4)cc3)cc2)[nH]1)c1ccccc1 [Compound 244] | < 1 |
| O=C(N[C@@H](C(=O)N1CCC[C@H]1c1ncc(-c2ccc(C#Cc3ccc(-c4cnc([C@@H]5CCCN5C(=O)[C@H](NC(=O)N5CC[C@H](O)C5)c5ccccc5)[nH]4)cc3)cc2)[nH]1)c1ccccc1)N1CC[C@H](O)C1 [Compound 245] | < 1 |
| CC(C)(C)OC(=O)N[C@@H](C(=O)N1CCC[C@H]1c1ncc(-c2ccc(C#Cc3ccc(-c4cnc([C@@H]5CCCN5C(=O)[C@H](NC(=O)OC(C)(C)C)c5ccccc5)[nH]4)cc3)cc2)[nH]1)c1ccccc1 [Compound 246] | < 1 |
| O=C(N[C@@H](C(=O)N1CCC[C@H]1c1ncc(-c2ccc(C#Cc3ccc(-c4cnc([C@@H]5CCCN5C(=O)[C@H](NC(=O)N5CCOCC5)c5ccccc5)[nH]4)cc3)cc2)[nH]1)c1ccccc1)N1CCOCC1 [Compound 248] | < 1 |
| O=C(N[C@@H](C(=O)N1CCC[C@H]1c1ncc(-c2ccc(C#Cc3ccc(-c4cnc([C@@H]5CCCN5C(=O)[C@H](NC(=O)N5CCCC5)c5ccccc5)[nH]4)cc3)cc2)[nH]1)c1ccccc1)N1CCCC1 [Compound 249] | < 1 |
